{"source": "patent US11534446B2", "about": "“Pharmaceutical composition comprising 3-beta-hydroxy-5-alpha-pregnan-20-one with improved storage and solubility properties” (ASARINA PHARMA AB, priority 2010, dated 2022)", "assay": "UC1010 concentration in 0.2 μm filtrate of suspensions in sesame oil with cholesterol (Example 77)", "assay_type": "physicochemical", "conditions": "sesame oil suspension", "description": "Suspensions of 3-beta-hydroxy-5-alpha-pregnan-20-one were prepared for investigation of solubility as follows: cholesterol was first dissolved at room temperature in sesame oil at 10 and 20 mg/ml, respectively. Suspensions of 3-beta-hydroxy-5-alpha-pregnan-20-one in sesame oil with different amounts of cholesterol were prepared on a magnetic stirrer at about 500 rpm using a conventional Teflon coated stir bar, at room temperature for several days, with occasional cycling to 2-8° C. At this time, the particles have become substantially smaller. Thereafter, samples of the respective suspensions were filtered through a 0.2 μm filter and analyzed with regard to concentration of 3-beta-hydroxy-5-alpha-pregnan-20-one. The results are presented in Table 3 and FIG. 2 where it can be seen that increasing the amounts of cholesterol increases the soluble fraction of 3-beta-hydroxy-5-alpha-pregnan-20-one. […] FIGS. 3a and 3b show microscopy pictures taken at 5× enlargement of suspensions with a 3-beta-hydroxy-5-alpha-pregnan-20-one concentration of 10 mg/g and a cholesterol:3-beta-hydroxy-5-alpha-pregnan-20-one ratio of 1:1 immediately upon mixing (3a) and after several days of stirring (3b)."}
{"smiles": "CC(=O)[C@H]1CC[C@H]2[C@@H]3CC[C@H]4C[C@@H](O)CC[C@]4(C)[C@H]3CC[C@]12C", "note": "[3-beta-hydroxy-5-alpha-pregnan-20-one]", "values": [{"measurement": "3-beta-hydroxy-5-alpha-pregnan-20-one concentration in filtrate", "setting": "initial concentration 10 mg/g, weight ratio cholesterol to UC1010 0:1, 0.2 μm filter", "value": 1, "unit": "mg/mL"}, {"measurement": "3-beta-hydroxy-5-alpha-pregnan-20-one concentration in filtrate", "setting": "initial concentration 10 mg/g, weight ratio cholesterol to UC1010 1:1, 0.2 μm filter", "value": 1.8, "unit": "mg/mL"}, {"measurement": "3-beta-hydroxy-5-alpha-pregnan-20-one concentration in filtrate", "setting": "initial concentration 10 mg/g, weight ratio cholesterol to UC1010 2:1, 0.2 μm filter", "value": 2.2, "unit": "mg/mL"}, {"measurement": "3-beta-hydroxy-5-alpha-pregnan-20-one concentration in filtrate", "setting": "initial concentration 40 mg/g, weight ratio cholesterol to UC1010 1:2, 0.2 μm filter", "value": 1.9, "unit": "mg/mL"}, {"measurement": "3-beta-hydroxy-5-alpha-pregnan-20-one concentration in filtrate", "setting": "initial concentration 40 mg/g, weight ratio cholesterol to UC1010 1:4, 0.2 μm filter", "value": 1.4, "unit": "mg/mL"}]}
